Data taken from patent publication US20240383954A1, “PEPTIDE INHIBITORS OF INTERLEUKIN-23 RECEPTOR AND THEIR USE TO TREAT INFLAMMATORY DISEASES” (Janssen Biotech, Inc., priority 2020, published 2024).
Starred links: 1 amine or outer side, 2 acyl side, 3 side chain; linkers in the order of their positions; H or OH if unused. Positions of bridges follow the written chain, without caps; N, C: chain ends. Non-standard residues stand in square brackets, D forms with d. Residues, ends and D or L forms follow the SMILES beside them. *: point of attachment. Abu(4-yl) = O=C([C@H](CC[*:3])N[*:1])[*:2]; 2Nal = N[C@@H](Cc1ccc2ccccc2c1)C(=O)O; AEF = NCCOc1ccc(C[C@H](N)C(=O)O)cc1; Pen = CC(C)(S)[C@H](N)C(=O)O; Thp = NC1(C(=O)O)CCOCC1; Aib = CC(C)(N)C(=O)O; Propionyl = CCC(=O)*

Biological target: IL-23R (Homo sapiens, UniProt Q5VWK5)
Sequence (Q5VWK5 24-629): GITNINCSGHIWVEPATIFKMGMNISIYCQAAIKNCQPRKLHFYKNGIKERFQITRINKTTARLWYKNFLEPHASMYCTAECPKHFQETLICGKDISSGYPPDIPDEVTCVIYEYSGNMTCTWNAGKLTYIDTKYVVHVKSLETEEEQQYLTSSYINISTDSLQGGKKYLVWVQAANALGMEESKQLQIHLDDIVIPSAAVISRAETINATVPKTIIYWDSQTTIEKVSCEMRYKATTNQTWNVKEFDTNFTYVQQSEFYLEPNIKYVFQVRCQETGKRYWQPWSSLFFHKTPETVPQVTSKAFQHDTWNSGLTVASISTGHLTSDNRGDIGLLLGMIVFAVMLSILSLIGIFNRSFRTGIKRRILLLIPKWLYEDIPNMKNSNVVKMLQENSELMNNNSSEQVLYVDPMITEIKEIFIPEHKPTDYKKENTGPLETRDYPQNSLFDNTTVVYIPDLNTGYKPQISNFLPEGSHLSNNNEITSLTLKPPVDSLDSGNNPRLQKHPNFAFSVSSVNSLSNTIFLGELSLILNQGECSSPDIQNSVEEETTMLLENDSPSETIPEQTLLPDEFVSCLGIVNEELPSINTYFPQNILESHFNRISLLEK
Assay: cell-based
Details: PBMC pSTAT3 IC50 (nM), PBMCs from healthy donors, IL-23 5 ng/mL, 30 minutes, phosphorylated STAT3
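Also: cryopreserved PBMCs stimulated at 37 °C in 5% CO2, then lysed, with phosphorylated STAT3 quantified in lysates using a phospho-STAT panel kit.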

Row | Structure (SMILES) | IC50 [nM]
1 | CC(=O)N[C@H](CCCNC(=N)N)C(=O)N[C@H]1CCSC[C@@H](C(=O)N[C@@H](Cc2ccc(OCCN)cc2)C(=O)N[C@@H](Cc2ccc3ccccc3c2)C(=O)NC2(C(=O)NC(C)(C)C(=O)N[C@@H](CC(N)=O)C(=O)N[C@@H](Cc3ccccc3)C(N)=O)CCOCC2)NC(=O)[C@H](CCC(N)=O)NC(=O)[C@H](Cc2c[nH]c3ccccc23)NC(=O)[C@H]([C@@H](C)O)NC(=O)[C@H](CCC(N)=O)NC1=O [Compound 49, Ac-[(D)Arg]-[Abu]-Q-T-W-Q-[Cys]-Phe[4-(2-aminoethoxy)]-[2-Nal]-[THP]-[Aib]-N-F-NH2] (Ac-[dR][Abu(4-yl)]QTWQC[AEF][2Nal][Thp][Aib]NF-NH2; thioether 2-7) | 18
2 | CC(=O)N[C@H](CCCNC(=N)N)C(=O)N[C@@H]1C(=O)N[C@@H](CCC(N)=O)C(=O)N[C@@H]([C@@H](C)O)C(=O)N[C@@H](Cc2c[nH]c3ccccc23)C(=O)N[C@@H](CCC(N)=O)C(=O)N[C@H](C(=O)N[C@@H](Cc2ccc(OCCN)cc2)C(=O)N[C@@H](Cc2ccc3ccccc3c2)C(=O)NC2(C(=O)N[C@@H](CCCCNC(=O)C3CC3)C(=O)N[C@@H](CC(N)=O)C(=O)NC3(C(N)=O)CCOCC3)CCOCC2)C(C)(C)SSC1(C)C [Compound 51, Ac-[(D)Arg]-[Pen]-Q-T-W-Q-[Pen]-Phe[4-(2-aminoethoxy)]-[2-Nal]-[THP]-[Lys(COcPr)]-N-[THP]-NH2] | 27
3 | CCCC(=O)NCCCC[C@H](NC(=O)C1(NC(=O)[C@H](Cc2ccc3ccccc3c2)NC(=O)[C@H](Cc2ccc(OCCN)cc2)NC(=O)[C@H]2NC(=O)[C@H](CCC(N)=O)NC(=O)[C@H](Cc3c[nH]c4ccccc34)NC(=O)[C@H]([C@@H](C)O)NC(=O)[C@H](CCC(N)=O)NC(=O)[C@@H](NC(=O)[C@@H](CCCNC(=N)N)NC(C)=O)C(C)(C)SSC2(C)C)CCOCC1)C(=O)N[C@@H](CC(N)=O)C(=O)NC1(C(N)=O)CCOCC1 [Compound 52, Ac-[(D)Arg]-[Pen]-Q-T-W-Q-[Pen]-Phe[4-(2-aminoethoxy)]-[2-Nal]-[THP]-[Lys(COPr)]-N-[THP]-NH2] | 16
4 | CC(=O)NCCCC[C@H](NC(=O)C1(NC(=O)[C@H](Cc2ccc3ccccc3c2)NC(=O)[C@H](Cc2ccc(OCCN)cc2)NC(=O)[C@H]2NC(=O)[C@H](CCC(N)=O)NC(=O)[C@H](Cc3c[nH]c4ccccc34)NC(=O)[C@H]([C@@H](C)O)NC(=O)[C@H](CCC(N)=O)NC(=O)[C@@H](NC(=O)[C@@H](CCCNC(=N)N)NC(C)=O)C(C)(C)SSC2(C)C)CCOCC1)C(=O)N[C@@H](CC(N)=O)C(=O)N[C@@H](Cc1ccccc1)C(N)=O [Compound 53, Ac-[(D)Arg]-[Pen]-Q-T-W-Q-[Pen]-Phe[4-(2-aminoethoxy)]-[2-Nal]-[THP]-[Lys(Ac)]-N-F-NH2] (Ac-[dR][Pen]QTWQ[Pen][AEF][2Nal][Thp]K(Ac)NF-NH2; disulfide 2-7) | 29
5 | CCC(=O)NCCCC[C@H](NC(=O)C1(NC(=O)[C@H](Cc2ccc3ccccc3c2)NC(=O)[C@H](Cc2ccc(OCCN)cc2)NC(=O)[C@H]2NC(=O)[C@H](CCC(N)=O)NC(=O)[C@H](Cc3c[nH]c4ccccc34)NC(=O)[C@H]([C@@H](C)O)NC(=O)[C@H](CCC(N)=O)NC(=O)[C@@H](NC(=O)[C@@H](CCCNC(=N)N)NC(C)=O)C(C)(C)SSC2(C)C)CCOCC1)C(=O)N[C@@H](CC(N)=O)C(=O)N[C@@H](Cc1ccccc1)C(N)=O [Compound 54, Ac-[(D)Arg]-[Pen]-Q-T-W-Q-[Pen]-Phe[4-(2-aminoethoxy)]-[2-Nal]-[THP]-[Lys(COEt)]-N-F-NH2] (Ac-[dR][Pen]QTWQ[Pen][AEF][2Nal][Thp]K(Propionyl)NF-NH2; disulfide 2-7) | 47
